{"source": "patent US20260167673A1", "about": "“NOVEL POLYPEPTIDE, POLYPEPTIDE DERIVATIVE AND USE THEREOF” (NANJING ANJI BIOTECHNOLOGY CO., LTD., priority 2023, published 2026)", "assay_type_in_all_cases": "cell-based", "key": {"[1]": {"test_system": "human melanoma A375 cells", "assay": "Transwell metastasis inhibition, A375", "details": "48 h", "description": "(§1) Melanoma, cervical cancer, ovarian cancer, liver cancer, and lung cancer cells were seeded into transwell chambers, with 100 μL per well. Different doses of the HMMW micropeptide and the novel polypeptide HMMW15-51 were added to each chamber as a treatment group, while no drug was added to a blank group. Then, 0.6 mL of a complete culture medium containing 10% FBS was added to the lower chambers of the transwell to stimulate cell metastasis, and the cells were cultured at 5% CO2 and 37° C. for 48 h. The culture solution was discarded from the wells. The cells were fixed with methanol at room temperature for 30 min, stained with 0.1% crystal violet at room temperature for 10 min, and rinsed with clean water. The upper layer nonmetastatic cells were wiped off with a cotton swab. The cells were observed under a microscope, and four fields of view were selected to take photos and count the cells. A metastasis inhibition (MI) was calculated according to a formula: […]\n(§2) where Ntest represents the number of cell metastases in the treatment group, and Ncontrol represents the number of cell metastases in the blank control group.\n(§3) Data was presented as mean±SD, and GraphPad Prism 5.0 statistical software was used."}, "[2]": {"test_system": "human ileocecal cancer cells HCT-8", "assay": "CCK8 proliferation inhibition, HCT-8", "details": "HCT-8, 50 μM, 48 h", "description": "(§4) Incubation was continued for 4 h in a cell incubator, an absorbance was measured at 450 nm, and a proliferation inhibition was calculated. Data was presented as mean±SD, and GraphPad Prism 5.0 statistical software was used. A t-test was used for comparison between two groups, while One-way Anova (Dunnett) was used for comparison among a plurality of groups."}, "[3]": {"test_system": "human esophageal cancer cells TE-13", "assay": "CCK8 proliferation inhibition, TE-13", "details": "TE-13, 50 μM, 48 h", "description": "as §4"}, "[4]": {"test_system": "human lung cancer A549 cells", "assay": "Transwell metastasis inhibition, A549", "details": "48 h", "description": "as §1, §2, §3"}, "[5]": {"test_system": "human liver cancer cells HepG2", "assay": "CCK8 proliferation inhibition, HepG2", "details": "HepG2, 50 μM, 48 h", "description": "as §4"}, "[6]": {"test_system": "human cervical cancer Hela cells", "assay": "Transwell metastasis inhibition, Hela", "details": "50 μmol/L, 48 h", "description": "as §1, §2, §3"}, "[7]": {"test_system": "human colon cancer cells HT29", "assay": "CCK8 proliferation inhibition, HT29", "details": "HT29, 50 μM, 48 h", "description": "as §4"}, "[8]": {"test_system": "human cervical cancer epithelial cells CaSki", "assay": "CCK8 proliferation inhibition, CaSki", "details": "50 μM, 48 h", "description": "as §4"}, "[9]": {"test_system": "human papillary thyroid carcinoma cells NPPA87-1", "assay": "CCK8 proliferation inhibition, NPPA87-1", "details": "NPPA87-1, 50 μM, 48 h", "description": "as §4"}, "[10]": {"test_system": "human cervical cancer cells Hela", "assay": "CCK8 proliferation inhibition, Hela", "details": "50 μM, 48 h", "description": "as §4"}, "[11]": {"test_system": "human fibrosarcoma cells HT-1080", "assay": "CCK8 proliferation inhibition, HT-1080", "details": "HT-1080, 50 μM, 48 h", "description": "as §4"}, "[12]": {"test_system": "human ovarian cancer Skvo3 cells", "assay": "Transwell metastasis inhibition, Skvo3", "details": "48 h", "description": "as §1, §2, §3"}, "[13]": {"test_system": "human pancreatic cancer cells PANC-1", "assay": "CCK8 proliferation inhibition, PANC-1", "details": "PANC-1, 50 μM, 48 h", "description": "as §4"}, "[14]": {"test_system": "human non-small cell lung cancer cells A549", "assay": "CCK8 proliferation inhibition, A549", "details": "A549, 50 μM, 48 h", "description": "as §4"}, "[15]": {"test_system": "human acute myeloid leukemia cells KG-1", "assay": "CCK8 proliferation inhibition, KG-1", "details": "KG-1, 50 μM, 48 h", "description": "as §4"}, "[16]": {"test_system": "human colon cancer cells SW480", "assay": "CCK8 proliferation inhibition, SW480", "details": "SW480, 50 μM, 48 h", "description": "as §4"}, "[17]": {"test_system": "human ovarian clear cell carcinoma cells ES-2", "assay": "CCK8 proliferation inhibition, ES-2", "details": "ES-2, 50 μM, 48 h", "description": "as §4"}, "[18]": {"test_system": "human kidney clear cell adenocarcinoma cells 786-O", "assay": "CCK8 proliferation inhibition, 786-O", "details": "50 μM, 48 h", "description": "as §4"}, "[19]": {"test_system": "human lung squamous cell carcinoma cells SK-MES-1", "assay": "CCK8 proliferation inhibition, SK-MES-1", "details": "SK-MES-1, 50 μM, 48 h", "description": "as §4"}, "[20]": {"test_system": "human lung adenocarcinoma cells SPC-A1", "assay": "CCK8 proliferation inhibition, SPC-A1", "details": "SPC-A1, 50 μM, 48 h", "description": "as §4"}, "[21]": {"test_system": "human uterine epidermal cancer cells MS751", "assay": "CCK8 proliferation inhibition, MS751", "details": "MS751, 50 μM, 48 h", "description": "as §4"}, "[22]": {"test_system": "human giant cell lung cancer cells 95-D", "assay": "CCK8 proliferation inhibition, 95-D", "details": "50 μM, 48 h", "description": "as §4"}, "[23]": {"test_system": "human pancreatic cancer cells ASPC-1", "assay": "CCK8 proliferation inhibition, ASPC-1", "details": "ASPC-1, 50 μM, 48 h", "description": "as §4"}, "[24]": {"test_system": "human prostate cancer cells 22RV1", "assay": "CCK8 proliferation inhibition, 22RV1", "details": "22RV1, 50 μM, 48 h", "description": "as §4"}, "[25]": {"test_system": "human tongue squamous cell carcinoma CAL27 cells", "details": "CAL27, 80 μM, 48 h", "description": "After incubation was continued for 48 h, add 100 μL of CCK8 solution to each well of the 96-well plate."}, "[26]": {"test_system": "human tongue squamous cell carcinoma cells CAL27", "assay": "CCK8 proliferation inhibition, CAL27 (Example 5)", "details": "CAL27, 50 μM, 48 h", "description": "as §4"}}, "note": "Read-outs that look alike come from different tables or passages of the source. Marks after values point to notes of the source that are not given here. Where no end group is shown, it is not given here.", "data": [{"sequence": "MERAGVPGFSPRRSSVEAKMQSTSCSVRKSSTVTAWPAVVLLLSWGQRRGG [HMMW]", "values": [{"measurement": "Number of cell metastases", "setting": "[1]; A375, 50 μmol/L", "result": "371 ± 13.00"}, {"measurement": "Inhibition (%)", "setting": "[1]; A375 metastasis, 50 μmol/L", "result": "37.13*** %"}, {"measurement": "Inhibition (%)", "setting": "[2]", "result": "48.687 ± 3.785", "unit": "%"}, {"measurement": "OD", "setting": "[2]", "result": "0.482 ± 0.036"}, {"measurement": "Inhibition (%)", "setting": "[3]", "result": "53.060 ± 1.911", "unit": "%"}, {"measurement": "OD", "setting": "[3]", "result": "0.389 ± 0.016"}, {"measurement": "Number of cell metastases", "setting": "[4]; A549, 50 μmol/L", "result": "33 ± 20.50"}, {"measurement": "Inhibition (%)", "setting": "[4]; A549 metastasis, 50 μmol/L", "result": "94.57*** %"}, {"measurement": "Inhibition (%)", "setting": "[5]", "result": "52.579 ± 2.504", "unit": "%"}, {"measurement": "OD", "setting": "[5]", "result": "0.509 ± 0.027"}, {"measurement": "Inhibition (%)", "setting": "[6]; Hela metastasis", "result": "88.80*** %"}, {"measurement": "Number of cell metastases", "setting": "[6]; Hela", "result": "115 ± 20.32"}, {"measurement": "Inhibition (%)", "setting": "[7]", "result": "50.805 ± 2.422", "unit": "%"}, {"measurement": "OD", "setting": "[7]", "result": "0.479 ± 0.024"}, {"measurement": "Inhibition (%)", "setting": "[8]", "result": "53.329 ± 3.884", "unit": "%"}, {"measurement": "OD", "setting": "[8]", "result": "0.458 ± 0.038"}, {"measurement": "Inhibition (%)", "setting": "[9]", "result": "48.192 ± 2.999", "unit": "%"}, {"measurement": "OD", "setting": "[9]", "result": "0.478 ± 0.028"}, {"measurement": "Inhibition (%)", "setting": "[10]", "result": "52.644 ± 4.018", "unit": "%"}, {"measurement": "OD", "setting": "[10]", "result": "0.493 ± 0.049"}, {"measurement": "Inhibition (%)", "setting": "[11]", "result": "53.092 ± 4.138", "unit": "%"}, {"measurement": "OD", "setting": "[11]", "result": "0.432 ± 0.038"}, {"measurement": "Number of cell metastases", "setting": "[12]; Skvo3, 50 μmol/L", "result": "118 ± 26.16"}, {"measurement": "Inhibition (%)", "setting": "[12]; Skvo3 metastasis, 50 μmol/L", "result": "89.60*** %"}, {"measurement": "Inhibition (%)", "setting": "[13]", "result": "50.273 ± 6.135", "unit": "%"}, {"measurement": "OD", "setting": "[13]", "result": "0.424 ± 0.052"}, {"measurement": "Inhibition (%)", "setting": "[14]", "result": "52.950 ± 2.023", "unit": "%"}, {"measurement": "OD", "setting": "[14]", "result": "0.508 ± 0.022"}, {"measurement": "Inhibition (%)", "setting": "[15]", "result": "37.600 ± 5.989", "unit": "%"}, {"measurement": "OD", "setting": "[15]", "result": "0.725 ± 0.070"}, {"measurement": "Inhibition (%)", "setting": "[16]", "result": "49.114 ± 2.626", "unit": "%"}, {"measurement": "OD", "setting": "[16]", "result": "0.479 ± 0.025"}, {"measurement": "Inhibition (%)", "setting": "[17]", "result": "51.916 ± 0.690", "unit": "%"}, {"measurement": "OD", "setting": "[17]", "result": "0.464 ± 0.007"}, {"measurement": "Inhibition (%)", "setting": "[18]", "result": "62.624 ± 7.014", "unit": "%"}, {"measurement": "OD", "setting": "[18]", "result": "0.413 ± 0.078"}, {"measurement": "Inhibition (%)", "setting": "[19]", "result": "54.910 ± 4.426", "unit": "%"}, {"measurement": "OD", "setting": "[19]", "result": "0.435 ± 0.043"}, {"measurement": "Inhibition (%)", "setting": "[20]", "result": "49.128 ± 3.053", "unit": "%"}, {"measurement": "OD", "setting": "[20]", "result": "0.525 ± 0.032"}, {"measurement": "Inhibition (%)", "setting": "[21]", "result": "49.268 ± 2.531", "unit": "%"}, {"measurement": "OD", "setting": "[21]", "result": "0.474 ± 0.024"}, {"measurement": "Inhibition (%)", "setting": "[22]", "result": "59.757 ± 5.365", "unit": "%"}, {"measurement": "OD", "setting": "[22]", "result": "0.442 ± 0.059"}, {"measurement": "Inhibition (%)", "setting": "[23]", "result": "51.448 ± 4.377", "unit": "%"}, {"measurement": "OD", "setting": "[23]", "result": "0.497 ± 0.045"}, {"measurement": "Inhibition (%)", "setting": "[24]", "result": "50.463 ± 1.693", "unit": "%"}, {"measurement": "OD", "setting": "[24]", "result": "0.552 ± 0.019"}, {"measurement": "OD", "setting": "[25]; Table 1, deletion mutants", "result": "0.260 ± 0.098"}, {"measurement": "OD", "setting": "[25]; Table 2, truncated fragments", "result": "0.351 ± 0.078"}, {"measurement": "Inhibition (%)", "setting": "[26]", "result": "67.115 ± 5.457", "unit": "%"}, {"measurement": "OD", "setting": "[26]", "result": "0.383 ± 0.064"}]}]}
